Assay results from US20240025906A1 (NEURON23, INC., priority 2022, published 2024).
Where two headings read alike, the source gives them in different places.

Experiments:
TYK2 JH2 = molecular target: T1, TYK2 JH2 (Homo sapiens, UniProt P29597); experiment: TYK2 JH2 binding assay (KINOMEscan KdELECT competitive binding); settings: TYK2 JH2 domain
T1 construct: purchased DiscoverX (KINOMEscan KdELECT service); host or cells: E. coli BL21-derived (T7 phage display) or HEK-293
Outline: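 The assay measures displacement of DNA- or phage-tagged TYK2 pseudokinase domain from an affinity resin; compound binding lowers the amount captured, read by qPCR. Incubation lasts 1 h at room temperature.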

[1] = system: JAK1/TYK2 pSTAT5 (Tyr694/699) in THP-1 cell line; experiment: IFNa-stimulated JAK1/TYK2 pSTAT5 (Tyr694/699) inhibition cellular assay, AlphaLISA; format: cell-based; settings: Homo sapiens, THP-1 cells, AlphaLISA (Assay B)
Outline: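 THP-1 cells (2e4/well in HBSS) were preincubated with compound (8 points, 6-fold steps from 10000 nM final) for 1 h at 37 °C, then stimulated with IFNa (added at 100 ng/mL) for 30 min. Lysate pSTAT5 was read by AlphaLISA at 615 nm. IC50 came from a 4-parameter fit with bottom 0 and Hill −1.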

[2] = DiscoverX KINOMEscan KdELECT (Assay A), read-out: Biochemical TYK2_DiscoverX_JH2_BND_Kd
[3] = IFNa-stimulated, read-out: Cellular_THP1_IFNa-pSTATS_TYK2
[4] = KINOMEscan KdELECT (Assay A), read-out: Biochemical TYK2_DiscoverX_JH2_BND_Kd
[5] = IFNa-stimulated pSTAT5 (Tyr694/699), read-out: Cellular_THP1_IFNa-pSTATS_TYK2
[6] = KINOMEscan KdELECT (Assay A), read-out: Biochemical TYK2_JH2_Kd
[7] = IFNa-stimulated, read-out: Cellular THP1_IFNa-pSTATS_IC50

T1 sequence (P29597 589-875 limits assumed): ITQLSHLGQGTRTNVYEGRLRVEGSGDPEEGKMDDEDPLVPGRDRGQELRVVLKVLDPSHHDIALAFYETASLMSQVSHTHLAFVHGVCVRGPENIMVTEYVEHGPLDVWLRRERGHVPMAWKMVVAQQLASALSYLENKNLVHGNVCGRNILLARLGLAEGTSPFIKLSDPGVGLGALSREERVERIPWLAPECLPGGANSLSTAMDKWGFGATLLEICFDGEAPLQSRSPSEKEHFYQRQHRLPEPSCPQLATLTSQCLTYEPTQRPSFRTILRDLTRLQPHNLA

SMILES	Kd (TYK2 JH2; [2])	IC50 [1, 3]	Kd (TYK2 JH2; [4])	also measured
[2H]C([2H])([2H])Nc1ncc(-c2nc3cc(N4CCOCC4)ccc3o2)c2cc(NC(=O)[C@H]3C[C@H]3C)ncc12 [Example 443, (1S,2R)-2-methyl-N-(8-((methyl-d3)amino)-5-(5-morpholinobenzo[d]oxazol-2-yl)-2,7-naphthyridin-3-yl)cyclopropane-1-carboxamide]	≤ 100 nM	≤ 500 nM		
CNc1ncc(-c2nc3ccc(N4C[C@@H](C)O[C@@H](C)C4)cn3n2)c2cc(NC(=O)C3CC3)ncc12 [Example 479, N-(5-(6-((2R,6S)-2,6-dimethylmorpholino)-[1,2,4]triazolo[1,5-a]pyridin-2-yl)-8-(methylamino)-2,7-naphthyridin-3-yl)cyclopropanecarboxamide]	≤ 100 nM	≤ 500 nM		
CCn1ccc(-c2cnc(NC)c3cnc(NC(=O)C4CC4)cc23)n1 [Example 147, N-(5-(1-ethyl-1H-pyrazol-3-yl)-8-(methylamino)-2,7-naphthyridin-3-yl)cyclopropanecarboxamide]				Kd (TYK2 JH2; [6]): ≤ 100 nM; IC50 [1, 7]: ≤ 500 nM
CNc1ncc(-c2nc3cc(OC)ccc3o2)c2cc(Nc3cc(C)n(C)n3)ncc12 [Example 376, N^6-(1,5-dimethyl-1H-pyrazol-3-yl)-4-(5-methoxybenzo[d]oxazol-2-yl)-N^1-methyl-2,7-naphthyridine-1,6-diamine]	≤ 100 nM	≤ 500 nM		
CNc1ncc(-c2nc3cc(N(C)C(C)=O)ccc3o2)c2cc(NC(=O)C3CC3)ncc12 [Example 297, N-(5-(5-(N-methylacetamido)benzo[d]oxazol-2-yl)-8-(methylamino)-2,7-naphthyridin-3-y1)cyclopropanecarboxamide]	≤ 100 nM	≤ 500 nM		
CNc1ncc(-c2nc3cc(OC[C@@H](C)OC)ccc3o2)c2cc(NC(=O)C3CC3)ncc12 [Example 241, (R)—N-(5-(5-(2-methoxypropoxy)benzo[d]oxazol-2-yl)-8-(methylamino)-2,7-naphthyridin-3-yl)cyclopropanecarboxamide]	≤ 100 nM	≤ 500 nM		
CNc1ncc(-c2cnn(CC(F)(F)F)c2)c2cc(NC(=O)C3CC3)ncc12 [Example 38, N-(8-(methylamino)-5-(1-(2,2,2-trifluoroethyl)-1H-pyrazol-4-yl)-2,7-naphthyridin-3-yl)cyclopropanecarboxamide]				Kd (TYK2 JH2; [6]): ≤ 100 nM; IC50 [1, 7]: > 500 nM
CNc1ncc(-c2cccc(S(C)(=O)=O)c2)c2cc(NC(=O)C3CC3)ncc12 [Example 29, N-(8-(methylamino)-5-(3-(methylsulfonyl)phenyl)-2,7-naphthyridin-3-yl)cyclopropanecarboxamide]				Kd (TYK2 JH2; [6]): ≤ 100 nM; IC50 [1, 7]: > 500 nM
CNc1ncc(-c2nc3ccc(N4CCO[C@H](C)C4)cc3o2)c2cc(NC(=O)C3CC3)ncc12 [Example 276, (R)—N-(8-(methylamino)-5-(6-(2-methylmorpholino)benzo[d]oxazol-2-yl)-2,7-naphthyridin-3-yl)cyclopropanecarboxamide]	≤ 100 nM	≤ 500 nM		
CCO/C=C\c1cccc2nc(-c3cnc(NC)c4cnc(NC(=O)C5CC5)cc34)nn12 [Example 506, (Z)—N-(5-(5-(2-ethoxyvinyl)-[1,2,4]triazolo[1,5-a]pyridin-2-yl)-8-(methylamino)-2,7-naphthyridin-3-yl)cyclopropanecarboxamide]	≤ 100 nM	≤ 500 nM		
CNc1ncc(C2=CCCOC2)c2cc(NC(=O)C3CC3)ncc12 [Example 77, N-(5-(5,6-dihydro-2H-pyran-3-yl)-8-(methylamino)-2,7-naphthyridin-3-yl)cyclopropanecarboxamide]				Kd (TYK2 JH2; [6]): ≤ 100 nM; IC50 [1, 7]: > 500 nM
CNc1ncc(-c2nc3cc(OC)ccc3o2)c2cc(NC(=O)[C@H]3C[C@H]3C)ncc12 [Example 384, (1S,2R)-N-(5-(5-methoxybenzo[d]oxazol-2-yl)-8-(methylamino)-2,7-naphthyridin-3-y1)-2-methylcyclopropane-1-carboxamide]	≤ 100 nM	≤ 500 nM		
CNc1ncc(-c2nc3cc(OC)ccc3o2)c2cc(NC(=O)[C@@H]3C[C@@H]3CF)ncc12 (racemic) [Example 399, 2-(fluoromethyl)-N-(5-(5-methoxybenzo[d]oxazol-2-yl)-8-(methylamino)-2,7-naphthyridin-3-yl)cyclopropane-1-carboxamide]	≤ 100 nM	≤ 500 nM		
CNc1ncc(-c2ccc(C3CC3)cc2)c2cc(NC(=O)C3CC3)ncc12 [Example 113, N-(5-(4-cyclopropylphenyl)-8-(methylamino)-2,7-naphthyridin-3-yl)cyclopropanecarboxamide]				Kd (TYK2 JH2; [6]): ≤ 100 nM; IC50 [1, 7]: > 500 nM
CNc1ncc(-c2nc3cc(OC[C@@H](C)O)ccc3o2)c2cc(NC(=O)C3CC3)ncc12 [Example 239, (R)—N-(5-(5-(2-hydroxypropoxy)benzo[d]oxazol-2-yl)-8-(methylamino)-2,7-naphthyridin-3-yl)cyclopropanecarboxamide]	≤ 100 nM	≤ 500 nM		

More lines, main results first:

Kd (TYK2 JH2; [2])	IC50 [1, 3]	Kd (TYK2 JH2; [4])	SMILES	also measured
	≤ 500 nM	≤ 100 nM	CNc1ncc(C#Cc2ccc(OC)cn2)c2cc(NC(=O)C3CC3)ncc12 [Example 613]	
		≤ 100 nM	CNc1ncc(-c2cn3cc(C)ccc3n2)c2cc(NC(=O)C3CC3)ncc12 [Example 1056]	IC50 [1, 5]: ≤ 500 nM
≤ 100 nM	≤ 500 nM		CNc1ncc(-c2nc3ccc(N4CCOCC4)cn3n2)c2cc(Nc3ncccc3F)ncc12 [Example 537, N^6-(3-fluoropyridin-2-yl)-N^1-methyl-4-(6-morpholino-[1,2,4]triazolo[1,5-a]pyridin-2-yl)-2,7-naphthyridine-1,6-diamine]	
	≤ 500 nM	≤ 100 nM	CNc1ncc(C#Cc2ccc3c(c2)nnn3C)c2cc(NC(=O)C3CC3)ncc12 [Example 618, N-(5-((1-methyl-1H-benzo[d][1,2,3]triazol-5-yl)ethynyl)-8-(methylamino)-2,7-naphthyridin-3-yl)cyclopropanecarboxamide]	
≤ 100 nM	≤ 500 nM		CNc1ncc(-c2nc3ccc(N4CCO[C@H](C)C4)cn3n2)c2cc(NC(=O)C3(F)CC3)ncc12 [Example 550, (R)-1-fluoro-N-(8-(methylamino)-5-(6-(2-methylmorpholino)-[1,2,4]triazolo[1,5-a]pyridin-2-yl)-2,7-naphthyridin-3-yl)cyclopropane-1-carboxamide]	
		≤ 100 nM	CNc1ncc(C#Cc2ccc(N3CCOCC3=O)cc2)c2cc(NC(=O)C3CC3)ncc12 [Example 999, N-(8-(methylamino)-5-((4-(3-oxomorpholino)phenyl)ethynyl)-2,7-naphthyridin-3-yl)cyclopropanecarboxamide]	IC50 [1, 5]: ≤ 500 nM
	≤ 500 nM	≤ 100 nM	CNc1ncc(-c2nc(-c3nc[nH]n3)co2)c2cc(NC(=O)C3CC3)ncc12 [Example 829, N-(5-(4-(1H-1,2,4-triazol-3-yl)oxazol-2-yl)-8-(methylamino)-2,7-naphthyridin-3-yl)cyclopropanecarboxamide]	
	≤ 500 nM	≤ 100 nM	CNc1ncc(-c2nc3cc(N4CCCC4)ccc3o2)c2cc(NC(=O)C3CC3)ncc12 [Example 917, N-[8-(methylamino)-5-(5-pyrrolidin-1-yl-1,3-benzoxazol-2-yl)-2,7-naphthyridin-3-yl]cyclopropanecarboxamide]	
	≤ 500 nM	≤ 100 nM	CNc1ncc(C#Cc2ccc(N3CCC3)cn2)c2cc(NC(=O)C3CC3)ncc12 [Example 726, N-(5-((5-(azetidin-1-yl)pyridin-2-yl)ethynyl)-8-(methylamino)-2,7-naphthyridin-3-yl)cyclopropanecarboxamide]	
	≤ 500 nM	≤ 100 nM	CNc1ncc(C#Cc2ccc3nc4n(c3c2)CCOC4)c2cc(NC(=O)C3(F)CC3)ncc12 [Example 758, N-(5-((3,4-dihydro-1H-benzo[4,5]imidazo[2,1-c][1,4]oxazin-7-yl)ethynyl)-8-(methylamino)-2,7-naphthyridin-3-yl)-1-fluorocyclopropane-1-carboxamide]	
	≤ 500 nM	≤ 100 nM	CNc1ncc(C#Cc2ccc(OC3CN(C(C)=O)C3)cc2)c2cc(NC(=O)C3CC3)nnc12 [Example 893, N-(5-((4-((1-acetylazetidin-3-yl)oxy)phenyl)ethynyl)-8-(methylamino)pyrido[3,4-c]pyridazin-3-yl)cyclopropanecarboxamide]	
		≤ 100 nM	CNc1ncc(C#Cc2nc3ccccc3s2)c2cc(NC(=O)C3CC3)ncc12 [Example 1020, N-(5-(benzo[d]thiazol-2-ylethynyl)-8-(methylamino)-2,7-naphthyridin-3-yl)cyclopropanecarboxamide]	IC50 [1, 5]: ≤ 500 nM
≤ 100 nM	≤ 500 nM		[2H]C([2H])([2H])Nc1ncc(-c2nc3ccccn3n2)c2cc(NC(=O)[C@H]3C[C@H]3F)ncc12 [Example 566, (1R,2R)—N-(5-([1,2,4]triazolo[1,5-a]pyridin-2-yl)-8-((methyl-d3)amino)-2,7-naphthyridin-3-yl)-2-fluorocyclopropane-1-carboxamide]	
